Here are results for two molecules from publication PMC5914052, “ATR kinase inhibitors NVP-BEZ235 and AZD6738 effectively penetrate the brain after systemic administration” (Radiation Oncology (London, England), 2018).

Like-named read-outs stand apart in the source and are kept apart here.

In data set [1] the test system is COMI GIC-driven orthotopic GB. Conditions: for Effect on survival of irradiated animals: 25 mg/Kg i.p. + 0.5 Gy IR, three consecutive days, versus vehicle+IR; for Median animal survival: 25 mg/Kg i.p. followed 4 h later by 0.5 Gy IR to the head, at d22, d23 and d24, vehicle (DMSO)+IR 99 days.
Protocol: Briefly, a surgery-derived tumor specimen was obtained, after informed consent, from a patient with diagnosis of GB, WHO grade IV. The tumor specimen was collected on ice and immediately processed for isolation of GIC according to Svendsen et al [10] Cells were grown in proliferation medium containing EuroMed-N/DMEM/F-12 (Euroclone) and B27 supplement w/o Vitamin A (1:50; Life Technologies), recombinant human FGF-2 (10 ng/mL; Peprotech), and recombinant human EGF (20 ng/mL; Peprotech). Under these conditions, the cells attach and grow as a monolayer in flasks and maintain intact self-renewal capacity for at least 3 months. […] In order to avoid significant subpopulation selection during prolonged cell culture, COMI GIC samples cultured for no more than two months after post-surgery isolation were used for orthotopic tumor development.
Development and characterization of COMI GIC-driven orthotopic GBs have been previously described [7–9]. Briefly, NOD/SCID mice (4–5 weeks old; Ospedale Policlinico San Martino Animal Facility) were anesthetized with i.m. ketamine and xylazine. Thereafter, the animals were positioned into a stereotaxic frame (David Kopf instruments) and a hole was made using a 21-gauge needle, 2.5 mm lateral and 1 mm anterior from the intersection of the coronal and sagittal sutures (bregma). 0.5 × 10^6 COMI GIC were injected into the left corpus striatum. Animals were observed daily for neurological symptoms and when moribund were euthanized by CO2 asphyxiation. For tumor analysis, animals were euthanized and brains were fixed and stained with hematoxylin/eosin (H/E) or an anti-nestin mouse monoclonal primary antibody followed by a FITC-conjugated goat anti-mouse secondary IgG.
Whole brain RT of animals bearing orthotopic COMI GB was performed under animal anesthesia obtained by an isoflurane inhalation anesthesia apparatus. Irradiation was performed by an RS 2000 Biological Irradiator (Rad Source Technologies, Alpharetta, GA, USA) equipped with a collimator directing a parallel beam of X-radiation to the head only. The prescription dose was 0.5 Gy. Under those conditions, virtually no radiation to the rest of the body was delivered. The radiation doses were verified by a RadCal Accu-Gold system (Monrovia, CA, USA) equipped with a 10X6–0.6 High Dose Rate Chamber and confirmed by two radiochromic films (Gafchromic® EBT3, Ashland Inc., Covington, KY, USA) placed over and under the mouse body. RT was administered 4 h after each ATRi administration.
Seven mice per treatment group were used. Kaplan-Meier survival curves were compared by both log-rank (Mantel-Cox) and Gehan-Breslow-Wilcoxon tests. The GraphPad Prism 5.01 statistical software was used.
(§1) This combined (ATRi+IR) treatment was repeated two more times at d23 and d24.
A short description of data set [2]: Brain histopathology (H/E) of tumor-bearing mice treated with ATRi+IR. Conditions: H/E staining at d88.
Protocol: (§2) Briefly, NOD/SCID mice (4–5 weeks old; Ospedale Policlinico San Martino Animal Facility) were anesthetized with i.m. ketamine and xylazine. Thereafter, the animals were positioned into a stereotaxic frame (David Kopf instruments) and a hole was made using a 21-gauge needle, 2.5 mm lateral and 1 mm anterior from the intersection of the coronal and sagittal sutures (bregma). 0.5 × 10^6 COMI GIC were injected into the left corpus striatum. Animals were observed daily for neurological symptoms and when moribund were euthanized by CO2 asphyxiation. For tumor analysis, animals were euthanized and brains were fixed and stained with hematoxylin/eosin (H/E) or an anti-nestin mouse monoclonal primary antibody followed by a FITC-conjugated goat anti-mouse secondary IgG.
as §1
(§3) This treatment was repeated at d23 and d24.
Data set [3] in a line: Pharmacokinetics after i.p. delivery: blood and brain concentration by HPLC/MS. The class given is in vivo, CD-1 mice. Conditions: 25 mg/Kg i.p.; for concentration at 1 h / concentration at 2 h / concentration at 6 h / concentration at 8 h: mouse, ip, tumor-free CD-1 mice. The method, then: Tumor-free 8-weeks old CD-1 mice (Envigo, http://www.envigo.com) were inoculated i.p. with 25 mg/Kg body weight of NVP-BEZ235 or AZD6738. 1, 2, 6 and 8 h later, blood was collected by retro-orbital bleeding after which the mice were euthanized by CO2 asphyxiation and the brains explanted. Blood and brain samples were then extracted and NVP-BEZ235 and AZD6738 concentrations determined by High Performance Liquid Chromatography (HPLC)/mass spectrometry (MS) as described.
The biodistribution and pharmacokinetics of these ATRi, in particular the concentration reached in the brain after i.p. delivery, is crucial to determine optimal tumor radio-sensitization conditions in vivo. The presence of genuine NVP-BEZ235 and AZD6738 in the mouse blood and brain after i.p. delivery was investigated using HPLC/MS. Figure 1a and 1c show the isotopic patterns of NVP-BEZ235 and AZD6738 respectively, as determined by MS. A logarithmic relationship was found between abundance of NVP-BEZ235 (Fig. 1b) and AZD6738 (Fig. 1d) (expressed in arbitrary units) and their concentrations. For both NVP-BEZ235 and AZD6738, the Limit of Quantitation (LoQ) was 10 × 10^− 9 M. Tumor-free mice were inoculated i.p. with 25 mg/Kg body weight of NVP-BEZ235 (Fig. 1f) or AZD6738 (Fig. 1i). Mouse ID numbers are indicated at the top of Fig. 1f and I for the sake of reference. Blood samples were then withdrawn retro-orbitally after 1, 2, 6 and 8 h (Fig. 1g and k). Immediately after blood sampling, the animals were euthanized and their brains removed (Fig. 1e and h). All samples were homogenized and extracted concomitantly and its ATRi content determined by HPLC/MS. […] This value returned close to the LoQ (12 × 10^− 9 M) 8 h after the i.p. delivery (Fig. 1e).
Fig. 1 Pharmacokinetics of ATRi studied by HPLC/MS in positive polarity. a Isotopic pattern of NVP-BEZ235. b Relationship between HPLC/MS-determined abundance and concentration of NVP-BEZ235. The limit of quantitation (LoQ) was 10 × 10^− 9 M. c Isotopic pattern of AZD6738. d Relationship between HPLC/MS-determined abundance and concentration of AZD6738. The limit of quantitation (LoQ) was 10 × 10^− 9 M. e-g BBB crossing by NVP-BEZ235. Tumor-free mice were inoculated i.p. with 25 mg/Kg body weight of NVP-BEZ235 (f). At the indicated times [T (h)] blood was withdrawn retroorbitally for plasma isolation and analysis (g). Mice were then euthanized and the brains explanted (e). All blood and brain samples were then resuspended in water/methanol, homogenized, centrifuged and the supernatant determined for its NVP-BEZ235 concentration using HPLC/MS as described under Methods and Materials. Concentration values (× 10^− 9 M) are shown at the top of (e) and (g) and illustrated at half-panel by the area of a colored triangle. S.D. of values determined by this procedure is on average ± 31%. Mouse ID numbers are shown at the top of F for the sake of reference. h-k As in E-G but with AZD6738 TEXT PRINTED IN THE PICTURE: (e) NVP-BEZ235: [NVP-BEZ235] x 10^-9 M: 36 (T (h): 1; Brain); [NVP-BEZ235] x 10^-9 M: 111 (T (h): 2; Brain); [NVP-BEZ235] x 10^-9 M: 44 (T (h): 6; Brain); [NVP-BEZ235] x 10^-9 M: 12 (T (h): 8; Brain) | (g) NVP-BEZ235: [NVP-BEZ235] x 10^-9 M: 146 (T (h): 1; Blood); [NVP-BEZ235] x 10^-9 M: 32 (T (h): 2; Blood); [NVP-BEZ235] x 10^-9 M: 28 (T (h): 6; Blood); [NVP-BEZ235] x 10^-9 M: 12 (T (h): 8; Blood) | (h) AZD6738: [AZD6738] x 10^-9 M: 480 (T (h): 1; Brain); [AZD6738] x 10^-9 M: 380 (T (h): 2; Brain); [AZD6738] x 10^-9 M: 80 (T (h): 6; Brain); [AZD6738] x 10^-9 M: 9 (T (h): 8; Brain) | (k) AZD6738: [AZD6738] x 10^-9 M: 760 (T (h): 1; Blood); [AZD6738] x 10^-9 M: 1480 (T (h): 2; Blood); [AZD6738] x 10^-9 M: 140 (T (h): 6; Blood); [AZD6738] x 10^-9 M: 40 (T (h): 8; Blood)

A further data set deals with ATR. The note with it: in cells, cited from earlier work.
A further data set concerns PI3K/mTOR pathway. Conditions: cited from earlier work; for IC50: in cells.
Data set [4] is described as follows: Tolerability of NVP-BEZ235 doses above 25 mg/Kg in animals. It is filed as in vivo. Conditions: our animals, data not shown. The text has this:
Gil del Alcazar and coworkers have described radiosensitization of orthotopic GB by NVP-BEZ235 using the established glioma cell line U87 [15]. The U87-driven tumors yet poorly mimic the infiltrative and neovascularization growth properties of clinical GB [17]. Further, the U87 cell line was recently reported to represent a mix-up with another cell line. In order to investigate the radiosensitization properties of NVP-BEZ235 towards orthotopic GB driven by primary GIC that more faithfully mimic the clinical tumors growth, [17] we preliminarily investigated the pharmacokinetics of NVP-BEZ235 using HPLC/MS. […] The early termination of recent NVP-BEZ235 clinical trials due to elevated toxicity may confirm that safety dosing of NVP-BEZ235 should be thoroughly investigated prior to use. […] (Fig. 1e). […] NVP-BEZ235 can diffuse to brain tissues at pharmacologically active levels after systemic administration, albeit the presence of the efflux ABC-transporters (in particular ABCG2) at the BBB may in part restrict its brain penetration. In a preliminary tumor radiosensitization study, we then developed primary adult COMI tumors in NOD SCID mice, whose immunodeficient phenotype is required for reproducible engraftment in virtually 100% of mice (Fig. 2a). […]

The test system of data set [5] is orthotopic xenograft models of GB. More on the design: method as in PMID 27542970. Conditions: nude rats and NOD/SCID mice; cited from earlier work.
For data set [6] the following is noted: mouse, in vivo.
Protocol: as §2, §1, §3
[7] abbreviates: brain, read-out: Brain concentration.
[8] abbreviates: plasma, read-out: Blood concentration.

For the molecule `C[C@@H]1COCCN1c1cc(C2([S@](C)(=N)=O)CC2)nc(-c2cc[nH]c3nccc2-3)n1` [AZD6738], in data set [1], the “Effect on survival of irradiated animals” value was “could not observe any survival improvement” and the Median animal survival came to 101 days. In data set [2], the “Brain histology variation versus DMSO+IR” value is recorded as “No significant histology variations”. Further, the “Brain concentrations achievable after i.p. administration relative to NVP-BEZ235” value in data set [3] (AZD6738 versus NVP-BEZ235) is […]. In data set [3] (setting [7]), the concentration at 1 h was determined as 0.48 µM, the concentration at 2 h turned out to be 0.38 µM, the concentration at 6 h was found to be 0.08 µM and the concentration at 8 h is 0.009 µM. Also, in data set [3] (setting [8]), the concentration at 1 h amounted to 0.76 µM, the concentration at 2 h was determined as 1.48 µM, the concentration at 6 h was […] and the concentration at 8 h worked out at […]. In addition, in the data set with ATR (read-out: IC50 for ATR kinase inhibition in cells), the IC50 was […]. In addition, the “Inhibition of related kinases in the PI3K/mTOR pathway” value with PI3K/mTOR pathway was “does not inhibit significantly”.
In the case of `Cn1c(=O)n(-c2ccc(C(C)(C)C#N)cc2)c2c3cc(-c4cnc5ccccc5c4)ccc3ncc21` [NVP-BEZ235], the “Toxicity of doses higher than 25 mg/Kg i.p.” value in data set [4] is reported as “significant toxicity”. In addition, in data set [5], the “Side effects of doses higher than 25 mg/Kg” value is on record as “severe side effects” and the “Survival benefit or inhibition of tumour growth” value is “no survival benefit or inhibition of tumour growth”. Moreover, the “Brain histology variation versus DMSO+IR” value in data set [6] is listed as “No significant histology variations”. Moreover, in data set [1], the “Effect on survival of irradiated animals” value is “no elongation of median survival” and the Median animal survival was determined as 86 days. The “Decrease of blood concentration from 1 h to 2 h” value in data set [3] (1 h versus 2 h) is above 4 fold. In data set [3] (setting [7]), the concentration at 1 h was 0.036 µM, the concentration at 2 h worked out at 0.111 µM, the concentration at 6 h was determined as 0.044 µM and the concentration at 8 h is 0.012 µM. In addition, in data set [3] (setting [8]), the concentration at 1 h worked out at 0.146 µM, the concentration at 2 h turned out to be 0.032 µM, the concentration at 6 h stood at 0.028 µM and the concentration at 8 h was determined as 0.012 µM. For the same molecule, the IC50 in the data set with ATR (read-out: IC50 for ATR inhibition in cells) was 0.021 µM. The IC50 in the data set with PI3K/mTOR pathway (S473-Akt, read-out: Concentration giving 50% reduction of S473-Akt levels in cells) was 0.008 µM. Further, the IC50 in the data set on PI3K/mTOR pathway (T308-Akt, read-out: Concentration giving 50% reduction of T308-Akt levels in cells) was 0.03 µM.
